Measurements as given in patent publication EP2816108A1, “Transformed fungus with vitamin K dependent activity” (priority 2013, dated 2014).

What was measured:
[1] = tested on: Aspergillus nidulans strain YR23.5; test: Vitamin K growth test on solid media (Petri dishes), vitamin K quantified in lyophilised mycelium; assay type: cell-based; settings: in 100 mg DW (dry weight) of lyophilized fungal mycelium; growth tests in Petri dishes, 3 days
Experimental: Solid Media. Minimal media plates including vitamin K (vitamin K1, Fluka, 99%) were prepared. On top of the agar medium, sterile cellophane was placed to inhibit direct contact between the media and fungal cells. Spores of strain YR23.5 were plated in a concentration of ca. 10E+5 per plate. After 3 days of growth, harvesting was done by scraping off the mycelium from cellophane. Then the mycelium was frozen and pulverized in liquid nitrogen. The powder was subsequently lyophilised and sent for vitamin K analysis to LUFA-ITL (Landwirtschaftliche Untersuchungs- und Forschungsanstalt Institut für Tiergesundheit u Lebensmittelqualität GmbH, Kiel, Germany). Liquid media. The strain YR23.5 was pre-cultivated for 48 hours in 2 x 250 ml of liquid minimal media at 37°C, 180 rpm in Erlenmeyer flasks. Mycelium was harvested by filtration, washed and re-suspended in sterile minimal medium and separated into four equal aliquots of roughly 250 mg wet weight (corresponding to roughly 50 mg dry weight). Culture volume was set to 30 ml. […]
The vitamin uptake ability of A.nidulans was studied with growth tests in Petri dishes. In addition, vit.K uptake and unspecific resorption of vit.K to the fungal cell wall was analyzed in liquid cultures. According to growth tests in Petri dishes, 752 µg of vitamin K was quantified in 100 mg DW (dry weight) of lyophilized fungal mycelium. […]

[2] = tested on: Aspergillus nidulans strain YR 23.5; test: Vitamin K uptake in liquid cultures, viable versus heat-inactivated mycelium; assay type: cell-based; settings: for Uptake (vitamin K / DW): active minus inactive
Experimental: Solid Media. Minimal media plates including vitamin K (vitamin K1, Fluka, 99%) were prepared. On top of the agar medium, sterile cellophane was placed to inhibit direct contact between the media and fungal cells. Spores of strain YR23.5 were plated in a concentration of ca. 10E+5 per plate. After 3 days of growth, harvesting was done by scraping off the mycelium from cellophane. Then the mycelium was frozen and pulverized in liquid nitrogen. The powder was subsequently lyophilised and sent for vitamin K analysis to LUFA-ITL (Landwirtschaftliche Untersuchungs- und Forschungsanstalt Institut für Tiergesundheit u Lebensmittelqualität GmbH, Kiel, Germany). Liquid media. The strain YR23.5 was pre-cultivated for 48 hours in 2 x 250 ml of liquid minimal media at 37°C, 180 rpm in Erlenmeyer flasks. Mycelium was harvested by filtration, washed and re-suspended in sterile minimal medium and separated into four equal aliquots of roughly 250 mg wet weight (corresponding to roughly 50 mg dry weight). Culture volume was set to 30 ml. Two of these cultures received different vitamin K amounts, final concentration: 0.5 mg/mL and 0.05 mg/mL vitamin K (Konakion, micelles suspension, Roche, 10 mg/mL) and were grown for further 8 hours. Mock controls were grown in parallel for 8 hours without receiving vitamin K. After the growth phase the fungal cells were inactivated by boiling in the microwave oven (3 x 5 min at max. energy level), and subsequently vitamin K was added to the mock controls (final concentration, 0.5 and 0.05 mg/mL vitamin K). The inactivated cultures were further incubated in the rotary shaker for 30 minutes. All cultures were harvested at the same time point. Harvested biomass was washed, frozen and ground in liquid nitrogen, lyophilised and sent for analysis to LUFA-ITL (Landwirtschaftliche Untersuchungs- und Forschungsanstalt Institut für Tiergesundheit u Lebensmittelqualität GmbH, Kiel, Germany).
The vitamin uptake ability of A.nidulans was studied with growth tests in Petri dishes. In addition, vit.K uptake and unspecific resorption of vit.K to the fungal cell wall was analyzed in liquid cultures. According to growth tests in Petri dishes, 752 µg of vitamin K was quantified in 100 mg DW (dry weight) of lyophilized fungal mycelium. However, due to the set-up of this experiment it remains unclear if the vitamin K is either attached to the cell wall or actively taken up into the fungal cell. To clarify this, a second growth test comparing viable and heat-inactivated mycelium was performed. […] The maximal amount of vit.K unspecifically attached to the cell wall is approximately 20 µg per 100 mg (dry weight) of fungal mycelium. The majority of vitamin K was found in viable cells. The viable mycelium was able to take up approximately 8% of the vitamin K supplied through the culture medium (Hill et al.), more precisely 1,14 mg / 100 mg mycelium from the […] vit.K supplied in total (Table 2). Table 2: Vitamin K1 updake ability of Aspergillus nidulans strain YR 23.5. Vitamin K was added to liquid cultures, the final concentration as indicated. Fungal mycelium was inactivated by boiling in a microwave oven. Values which were obtained with inactivated fungal cell mass indicate the unspecific association of vitamin K to the fungal mycelium.

## CC1=C(C/C=C(\C)CCC[C@H](C)CCC[C@H](C)CCCC(C)C)C(=O)c2ccccc2C1=O [vitamin K, vitamin K1]
[1]
  vitamin K quantified in lyophilized fungal mycelium: 752 µg
[2]; fungal cell mass active, vitamin K added 50 µg/ml
  Uptake (vitamin K / DW): 169,1 µg/100 mg
[2]; fungal cell mass active, vitamin K added 50 µg/ml, liquid culture, 8 hours
  Absolute quantities (vitamin K / DW): 183,0 µg/100 mg
[2]; fungal cell mass active, vitamin K added 500 µg/ml
  Uptake (vitamin K / DW): 1122,1 µg/100 mg
[2]; fungal cell mass active, vitamin K added 500 µg/ml, liquid culture, 8 hours, DW = fungal mycelium (dry weight)
  Absolute quantities (vitamin K / DW): 1140,0 µg/100 mg
[2]; fungal cell mass inactive (boiled in microwave oven), vitamin K added 50 µg/ml, unspecific association with mycelium
  Absolute quantities (vitamin K / DW): 13,9 µg/100 mg
[2]; fungal cell mass inactive (boiled in microwave oven), vitamin K added 500 µg/ml, unspecific association with mycelium
  Absolute quantities (vitamin K / DW): 17,9 µg/100 mg
[2]; per 100 mg (dry weight) of fungal mycelium, inactivated cultures
  maximal amount of vit.K unspecifically attached to the cell wall: approximately 20 µg per 100 mg
[2]; viable mycelium
  vitamin K taken up of the vitamin K supplied through the culture medium: approximately 8%
[2]; viable mycelium, from the 50 mg vit.K supplied in total
  vitamin K taken up by viable mycelium: 1,14 mg / 100 mg mycelium
